Test results: US12139520B2 (priority 2020, dated 2024)
Like-named read-outs stand apart in the source and are kept apart here. Numbered stars: 1 amine (or outer) side, 2 acyl side, 3 side chain; on linkers, the order of the positions; unused ones are H or OH. Bridge positions count the residues as written; N and C are the ends. Square brackets hold non-standard residues; d marks the D form. Peptide text beside a SMILES is read from it. * marks the point of attachment. C20 diacid = O=C(O)CCCCCCCCCCCCCCCCCCC(=O)*; γGlu = O=C(O)[C@H](CCC(=O)[*:2])N[*:1]; Hyp = O=C(O)[C@@H]1C[C@@H](O)CN1

Assays:
[1] = Acute food intake study in lean rats; type: in vivo, rat; settings: single SC injection, lean healthy rats; for Average cumulative food intake: up to 48 h, P < 0.001 vs vehicle
Experimental: General Protocols for Acute Food Intake Study
The effect on cumulative food intake was measured in male Sprague Dawley rats (6 weeks of age, Taconic, Denmark) following a single dose using a fully automated food intake monitoring system (HM-2; MBRose ApS, Faaborg, Denmark), allowing for advanced synchronous real-time monitoring of food intake behaviour of individual animals. The animals were housed in groups of 4 in a light-, temperature-, and humidity-controlled room (a 12/12 LD cycle, lights on at 02:00 AM; 22±2° C.; 50% relative humidity). The mice had ad libitum access to regular chow diet (Altromin 1324, Brogaarden A/S, Lynge, Denmark) and domestic quality tap water. Mice arrived at day 7, and a minimum of 5 days of habituation to the system was allowed prior to beginning of the study. During these days, the animals were handled daily to accustom them to the experimental paradigm. On the day of dosing, the animals were randomized into groups according to body weight. Animals were fasted for four hours prior to dosing. Animals were dosed SC 30 or 180 min prior to lights out, and food intake data were collected automatically for a total of 48 h post-dosing with automatic food recordings every 5 min.

hAMY3 receptor = target: T1, hAMY3 receptor (Homo sapiens, UniProt O60896+P30988); experiment: cAMP assay for in vitro receptor activation, hAMY3-R; type: cell-based
T1 sequence (P30988 25-474): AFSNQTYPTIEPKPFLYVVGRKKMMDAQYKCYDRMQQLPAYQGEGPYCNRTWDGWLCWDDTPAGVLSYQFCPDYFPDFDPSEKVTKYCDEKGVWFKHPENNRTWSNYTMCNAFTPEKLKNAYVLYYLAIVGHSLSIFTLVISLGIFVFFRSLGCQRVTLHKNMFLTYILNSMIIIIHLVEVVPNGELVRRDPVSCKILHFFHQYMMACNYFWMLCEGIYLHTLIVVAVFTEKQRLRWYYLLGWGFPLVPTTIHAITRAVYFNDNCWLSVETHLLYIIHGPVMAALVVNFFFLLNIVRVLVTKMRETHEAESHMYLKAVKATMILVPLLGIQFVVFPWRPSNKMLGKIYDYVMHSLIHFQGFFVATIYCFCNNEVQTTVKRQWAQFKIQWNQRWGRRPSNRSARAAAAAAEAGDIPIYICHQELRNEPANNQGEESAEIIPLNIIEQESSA
T1 sequence (O60896 24-148 partner): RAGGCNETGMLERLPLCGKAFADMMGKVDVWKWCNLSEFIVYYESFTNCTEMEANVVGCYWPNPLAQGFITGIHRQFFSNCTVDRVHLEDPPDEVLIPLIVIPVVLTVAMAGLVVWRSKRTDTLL
Summary of the method: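 Receptor activation was measured as cAMP accumulation in a monoclonal cell line stably overexpressing hAMY3. Stimulation with graded doses lasted 30 min at room temperature in the presence of 0.5 mM IBMX, with human amylin as positive control.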

hAM1 receptor = hAM1 receptor (Homo sapiens, UniProt O60895+Q16602); experiment: cAMP assay for in vitro receptor activation, hAM1-R; type: cell-based
Summary of the method: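 Read-out is intracellular cAMP as a measure of receptor activation. Cells stably overexpressing hAM1 were subcloned to a monoclonal line, then thawed and seeded at 8000 cells/well in DPBS with 0.05% casein and the phosphodiesterase inhibitor IBMX at 0.5 mM.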

[2] = Chronic diet-induced obesity (DIO) study in rats; type: in vivo, rat; settings: for Average body weight day 28 (gram): P < 0.001 vs vehicle
Source text: General Protocols for Chronic Diet-Induced Obesity (DIO) Study
Sprague-Dawley rats (Taconic, Denmark) arrived at the age of 5 weeks. After one week of acclimation, they were evenly grouped based on their baseline body weight and offered ad libitum access a two-choice diet consisting of chow pellet (Altromin #1324, Brogaarden, Lynge, Denmark) and a high palatable high sugar/fat diet (1:1:1 mixture of Nutella (Ferrero, Alba, Italy), peanut butter (PCD, Rotterdam, Netherlands) and powdered standard chow (Altromin #1324, Brogaarden, Lynge, Denmark); 29.3% fat, 33.2% carbohydrate, and 18% protein) for up to 36 weeks. The rats were pair-housed throughout the study under controlled environmental conditions (12-hour light/dark cycle, lights off at 15:00; 22±1° C.; 50±10% relative humidity). Body weight, food and water intake were monitored daily during the entire period of the study. One day before the experiment, the rats were randomized according to body weight into experimental groups (n=9-10), which received compound or vehicle SC. QD (once daily) for 28 days.

[3] = Physical stability of peptide analogues (Thioflavin T fibrillation); type: physicochemical; settings: maximum ThT signal normalized between hAMY maximum and buffer background; 40° C., shaking, four days; pH 7 per table title
Summary of the method: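 Maximum ThT emission at 480 nm, after LOESS smoothing, is given as percent of the span from buffer background to hAMY. Conditions: 50 mM buffer at pH 4 or 7, 4 μM dye, 40 °C, repeated shaking, readings every 10 min for four days.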

[4] = 10 nmol/kg SC once daily for 28 days
[5] = 1 nmol/kg SC once daily for 28 days
[6] = 3 nmol/kg SC once daily for 28 days

Chain of hAM1 receptor (Q16602 23-461): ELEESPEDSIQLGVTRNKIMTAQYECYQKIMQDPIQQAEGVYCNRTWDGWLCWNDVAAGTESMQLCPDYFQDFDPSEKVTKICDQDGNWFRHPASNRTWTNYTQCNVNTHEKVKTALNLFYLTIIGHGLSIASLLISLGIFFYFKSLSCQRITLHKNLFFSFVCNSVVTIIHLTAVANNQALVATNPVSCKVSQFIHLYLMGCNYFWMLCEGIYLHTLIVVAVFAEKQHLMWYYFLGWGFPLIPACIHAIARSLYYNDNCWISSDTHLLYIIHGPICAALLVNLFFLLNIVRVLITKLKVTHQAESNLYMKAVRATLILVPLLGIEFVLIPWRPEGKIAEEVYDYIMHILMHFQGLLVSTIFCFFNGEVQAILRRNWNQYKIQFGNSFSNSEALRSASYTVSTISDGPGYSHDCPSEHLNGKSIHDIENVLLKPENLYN
Chain of hAM1 receptor (O60895 43-175 partner): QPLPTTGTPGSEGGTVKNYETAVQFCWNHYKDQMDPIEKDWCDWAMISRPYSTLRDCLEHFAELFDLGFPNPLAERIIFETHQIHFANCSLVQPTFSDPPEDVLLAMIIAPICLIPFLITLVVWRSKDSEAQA

Max ThT signal (%) [3] | EC50 (hAMY3 receptor; cAMP assay, hAMY3 receptor, read-out: hAMY3R EC50) | Compound | cumulative food intake, % to vehicle ([1]; 10 nmol/kg) | Average cumulative food intake ([1]; 10 nmol/kg) | EC50 (hAMY3 receptor) | EC50 (hAM1 receptor) | body weight day 28, % to vehicle [2, 4] | Average body weight day 28 (gram) [2, 4] | cumulative food intake, % to vehicle ([1]; 30 nmol/kg) | Average cumulative food intake ([1]; 30 nmol/kg) | body weight day 28, % to vehicle [2, 5] | Average body weight day 28 (gram) [2, 5] | body weight day 28, % to vehicle [2, 6] | Average body weight day 28 (gram) [2, 6]
 |  | CC[C@H](C)[C@H](NC(=O)[C@H](CCC(N)=O)NC(=O)[C@H](CCC(=O)O)NC(=O)[C@H](C)NC(=O)[C@H](CC(C)C)NC(=O)[C@H](CCCNC(=N)N)NC(=O)[C@H](CCC(N)=O)NC(=O)[C@@H](NC(=O)[C@@H](NC(=O)[C@@H]1CSSC[C@H](NC(=O)[C@H](CCCCN)NC(=O)CC[C@H](NC(=O)CCCCCCCCCCCCCCCCCCC(=O)O)C(=O)O)C(=O)N[C@@H](CC(N)=O)C(=O)N[C@@H]([C@@H](C)O)C(=O)N[C@@H](C)C(=O)N[C@@H]([C@@H](C)O)C(=O)N1)[C@@H](C)O)C(C)C)C(=O)N[C@@H](C)C(=O)N[C@@H](CCC(N)=O)C(=O)N[C@@H](Cc1ccccc1)C(=O)N[C@H](C(=O)N[C@@H](CC(=O)O)C(=O)N[C@@H](CCCCN)C(=O)N[C@@H](CC(=O)O)C(=O)N[C@@H](CCCCN)C(=O)N[C@@H](CC(=O)O)C(=O)N[C@@H](CC(N)=O)C(=O)N[C@H](C(=O)N[C@@H](C)C(=O)N1CCC[C@H]1C(=O)N1CCC[C@H]1C(=O)N[C@H](C(=O)N[C@@H](CC(N)=O)C(=O)N[C@H](C(=O)NCC(=O)N[C@@H](CO)C(=O)N[C@@H](CC(N)=O)C(=O)NCC(=O)N1C[C@H](O)C[C@H]1C(N)=O)C(C)C)[C@@H](C)O)C(C)C)[C@@H](C)O [compound 78] ({C20 diacid-γGlu}-KCNTATCTVQRLAEQIAQFTDKDKDNVAPPTNVGSNG[Hyp]-NH2; disulfide 2-7) | 33.66% | 13.7 g | 0.014 nM | > 5000 nM | 88.53% | 687 gram |  |  |  |  |  | 
5.800% | 0.011 nM | CC[C@H](C)[C@H](NC(=O)[C@H](CC(N)=O)NC(=O)[C@@H](NC(=O)[C@H](CCCNC(=N)N)NC(=O)[C@@H]1CCCN1C(=O)[C@H](C)NC(=O)[C@@H](NC(=O)[C@H](CC(N)=O)NC(=O)[C@H](CC(=O)O)NC(=O)[C@H](CCCCN)NC(=O)[C@H](CC(=O)O)NC(=O)[C@H](CCCCN)NC(=O)[C@H](CC(=O)O)NC(=O)[C@@H](NC(=O)[C@H](Cc1ccccc1)NC(=O)[C@H](CCC(N)=O)NC(=O)[C@H](Cc1ccc(O)cc1)NC(=O)[C@@H](NC(=O)[C@H](CCC(N)=O)NC(=O)[C@H](Cc1c[nH]cn1)NC(=O)[C@H](C)NC(=O)[C@H](CC(C)C)NC(=O)[C@H](CCCNC(=N)N)NC(=O)[C@H](CCC(N)=O)NC(=O)[C@@H](NC(=O)[C@@H](NC(=O)[C@@H]1CSSC[C@H](NC(=O)CN)C(=O)N[C@@H](CCCNC(=N)N)C(=O)N[C@@H](Cc2ccccc2)C(=O)NCC(=O)N[C@@H]([C@@H](C)O)C(=O)N1)[C@@H](C)O)C(C)C)[C@@H](C)CC)[C@@H](C)O)C(C)C)[C@@H](C)O)C(=O)NCC(=O)N1CCC[C@H]1C(=O)N[C@@H](CCC(N)=O)C(=O)NCC(=O)N1C[C@H](O)C[C@H]1C(N)=O [compound 46] (H-GCRFGTCTVQRLAHQIYQFTDKDKDNVAPRTNIGPQG[Hyp]-NH2; disulfide 2-7; N-terminus assumed) | 52.48% | 23.3 g |  |  | 86.31% | 618 gram | 24.10% | 10.7 g | 94.13% | 674 gram | 86.59% | 620 gram
